Patent US11014934B2, “Antiseptic drug” (AO “TATKHIMFARMPREPARATY”, priority 2017, dated 2021)
Read-outs that look alike come from different tables or passages of the source.

Tests used:
Assay in all cases: MIC, serial dilutions in Müller-Hinton broth
Type in all cases: cell-based
Kl. pneumoniae 1766 = test system: Kl. pneumoniae 1766
Description: (§1) A comparative assessment of the spectrum of antibacterial action was carried out on archival and clinical strains of gram-positive and gram-negative microorganisms in accordance with the [Opredeleniye chuvstvitel'nosti mikroorganizmov k antibakterial'nym preparatam (Metodicheskiye ukazaniya MUK 4.2.1890-04). Utverzhdeny i vvedeny v deystviye Glavnym gosudarstvennym sanitarnym vrachom Rossiyskoy Federatsii G. G. Onishchenko 04.03.2004 g. Determination of the sensitivity of microorganisms to antibacterial drugs (Guidelines MUK 4.2.1890-04). Approved and put into effect by the Chief State Sanitary Doctor of the Russian Federation G. G. Onishchenko on 4 Mar. 2004].
(§2) The value of the minimum inhibitory concentration (MIC) was determined by the method of serial dilutions on Müller-Hinton broth using 96-well sterile plates. Two-fold dilutions of the test substances in a nutrient medium were prepared. The final concentrations were 1-128 ug/ml. The growth of cultures was assessed visually, comparing the growth of microorganisms in the presence of test compounds with the growth of culture without them. […] The first lowest concentration of the studied substance (from a series of consecutive dilutions), where bacterial growth is not visually determined, is considered to be the minimum inhibitory concentration (MIC). MIC was determined by the method of serial dilutions in broth with increment=2, so the differences of neighboring dilutions are not considered to be significant. In each experience there is a positive (broth with growing culture) and a negative (broth without growing culture) control.
(§3) To determine the MIC, 10 μl of culture medium was taken from those wells in which growth was not observed, and inoculation was performed on a dense Müller-Hinton broth. For the preparation of the inoculum, a pure, daily culture of gram-positive and gram-negative microorganisms grown on a dense nutrient medium was used. Nutrient medium is Müller-Hinton broth, which was prepared from dry media (Müller-Hinton broth, Acumedia, Baltimore), cultivation was carried out on agarized Müller-Hinton broth, including an additional 2% agar. The media were autoclaved at 121° C. for 15 minutes. In a sterile isotonic solution of sodium chloride, a suspension of microorganisms was prepared, adjusting the inoculum density to 0.5 according to the McFarland standard (1.5·10^8 CFU/ml). Then, the resulting inoculum was diluted to a concentration of 10^7 CFU/ml with Müller-Hinton broth. The inoculum was used within 15 minutes after preparation; the purity of the bacterial strains was monitored before each experiment.
(§4) 100 μl of Müller-Hinton broth was added to the wells of each plate; The tested substance was introduced into the first well at a concentration of 128 μg/ml in a volume of 100 μl and its concentration was adjusted to 0.5 μg/ml by consecutive two-fold dilution. Then, the prepared inoculum (100 μI) was added to each well, thereby diluting twice the concentration of the studied compounds. […] In addition, the purity of nutrient media and solvents was monitored. The plates were incubated in a thermostat at 37° C. for 24 hours. The growth of cultures was assessed visually, comparing the growth of microorganisms in the presence of test compounds with the growth of culture without them.
(§5) For the MIC was taken the minimum concentration of the studied compounds, providing complete suppression of the visible growth of the studied strains of microorganisms. The maximum value obtained in three independent experiments was taken as the MIC of the compound.

Klebsiella spp. 10 = test system: Klebsiella spp. 10
Description: as §1, §2, §3, §4, §5

S. aureus 21 = test system: S. aureus 21
Description: as §1, §2, §3, §4, §5

B. subtilis 168 = test system: B. subtilis 168
Description: as §1, §2, §3, §4, §5

S. intermedius 1061 MRSI = test system: S. intermedius 1061 MRSI
Description: as §1, §2, §3, §4, §5

E. faecium 29 = test system: E. faecium 29
Description: as §1, §2, §3, §4, §5

S. aureus ATCC 209p = test system: S. aureus ATCC 209p
Description: as §1, §2, §3, §4, §5

S. aureus 22 = test system: S. aureus 22
Description: as §1, §2, §3, §4, §5

Kl. pneumoniae 1953 PR = test system: Kl. pneumoniae 1953 PR
Description: as §1, §2, §3, §4, §5

S. aureus 967 MRSA = test system: S. aureus 967 MRSA
Description: as §1, §2, §3, §4, §5

S. aureus 1163 MRSA = test system: S. aureus 1163 MRSA
Description: as §1, §2, §3, §4, §5

Serratia spp. 15 = test system: Serratia spp. 15
Description: as §1, §2, §3, §4, §5

S. aureus 20 = test system: S. aureus 20
Description: as §1, §2, §3, §4, §5

A. baumannii 1425 PR = test system: A. baumannii 1425 PR
Description: as §1, §2, §3, §4, §5

Moraxella sp.829 = test system: Moraxella sp.829
Description: as §1, §2, §3, §4, §5

Pseudomonas spp.6 = conditions: inoculum 10^7 CFU/ml
Description: as §1, §2, §3, §4, §5

Kl. pneumoniae 1342 PR = test system: Kl. pneumoniae 1342 PR
Description: as §1, §2, §3, §4, §5

Ps. aeruginosa 1945 PR = test system: Ps. aeruginosa 1945 PR
Description: as §1, §2, §3, §4, §5

Acinetobacter spp. 1 = test system: Acinetobacter spp. 1
Description: as §1, §2, §3, §4, §5

E.coli ATCC 25922 = test system: E.coli ATCC 25922
Description: as §1, §2, §3, §4, §5

M. luteus = test system: M. luteus
Description: as §1, §2, §3, §4, §5

S. aureus 1053 MRSA = test system: S. aureus 1053 MRSA
Description: as §1, §2, §3, §4, §5

CCCCCCCCCCCCCC(=O)NCCC[N+](C)(C)Cc1ccccc1.O.[Cl-] [Miramistin, benzyldimethyl [3-(myristoylamino)propyl]-ammonium chloride monohydrate] gave an MIC (Kl. pneumoniae 1766; Klebsiella pneumoniae, 1766) of 64 µg/mL, an MIC (Klebsiella spp. 10; Klebsiella, SPP.10) of 64 µg/mL and an MIC (S. aureus 21; Staphylococcus aureus, 21) of 16 µg/mL. The MIC (B. subtilis 168; Bacillus subtilis, 168) was 2 µg/mL, the MIC (S. intermedius 1061 MRSI) was 8 µg/mL and the MIC (E. faecium 29; Enterococcus faecium, 29) was 8 µg/mL. For the same compound, the MIC (S. aureus ATCC 209p; Staphylococcus aureus, ATCC209P) was 8 µg/mL, the MIC (S. aureus 22; Staphylococcus aureus, 22) was 8 µg/mL and the MIC (Kl. pneumoniae 1953 PR; Klebsiella pneumoniae, 1953PR) was 64 µg/mL. The MIC (S. aureus 967 MRSA; Staphylococcus aureus, MRSA) was 16 µg/mL, the MIC (S. aureus 1163 MRSA; Staphylococcus aureus, MRSA) was 4 µg/mL and the MIC (Serratia spp. 15; Serratia, SPP.15) was > 64 µg/mL. It also gave an MIC (S. aureus 20; Staphylococcus aureus, 20) of 32 µg/mL, an MIC (A. baumannii 1425 PR; Acinetobacter baumannii, 1425PR) of 64 µg/mL and an MIC (Moraxella sp.829; Moraxella, SP.829) of 32 µg/mL. The MIC (Pseudomonas spp.6; read-out: MIC) was > 64 µg/mL, the MIC (Kl. pneumoniae 1342 PR; Klebsiella pneumoniae, 1342PR) was 64 µg/mL and the MIC (Ps. aeruginosa 1945 PR; Pseudomonas aeruginosa, 1945PR) was > 64 µg/mL. The MIC (Acinetobacter spp. 1; Acinetobacter, SPP.1) was 64 µg/mL, the MIC (E.coli ATCC 25922; Escherichia coli, ATCC25922) was 4 µg/mL and the MIC (M. luteus; Micrococcus luteus) was 2 µg/mL. It also gave an MIC (S. aureus 1053 MRSA; Staphylococcus aureus, MRSA) of 4 µg/mL.

With “alkyldimethyl(phenylmethyl) ammonium chloride [Benzalconium chloride]” the MIC (Kl. pneumoniae 1766; Kl. pneumoniae 1766, inoculum 10^7 CFU/ml) was 16 µg/mL, the MIC (Klebsiella spp. 10; Klebsiella spp. 10, inoculum 10^7 CFU/ml) was 1 µg/mL and the MIC (S. aureus 21; S. aureus 21, inoculum 10^7 CFU/ml) was <0.5 µg/mL. The MIC (B. subtilis 168; B. subtilis 168, inoculum 10^7 CFU/ml) was 0.5 µg/mL, the MIC (S. intermedius 1061 MRSI; S. intermedius 1061 MRSI, inoculum 10^7 CFU/ml) was 4 µg/mL and the MIC (E. faecium 29; E. faecium 29, inoculum 10^7 CFU/ml) was <0.5 µg/mL. The MIC (S. aureus ATCC 209p; S. aureus ATCC 209p, inoculum 10^7 CFU/ml) was 4 µg/mL, the MIC (S. aureus 22; S. aureus 22, inoculum 10^7 CFU/ml) was <0.5 µg/mL and the MIC (Kl. pneumoniae 1953 PR; Kl. pneumoniae 1953 PR, inoculum 10^7 CFU/ml) was 16 µg/mL. The MIC (S. aureus 967 MRSA; S. aureus 967 MRSA, inoculum 10^7 CFU/ml) was 8 µg/mL, the MIC (S. aureus 1163 MRSA; S. aureus 1163 MRSA, inoculum 10^7 CFU/ml) was 4 µg/mL and the MIC (Serratia spp. 15; Serratia spp. 15, inoculum 10^7 CFU/ml) was 2 µg/mL. For the same compound, the MIC (S. aureus 20; S. aureus 20, inoculum 10^7 CFU/ml) was <0.5 µg/mL, the MIC (A. baumannii 1425 PR; A. baumannii 1425 PR, inoculum 10^7 CFU/ml) was 32 µg/mL and the MIC (Moraxella sp.829; Moraxella sp.829, inoculum 10^7 CFU/ml) was 32 µg/mL. The MIC (Pseudomonas spp.6) was 16 µg/mL, the MIC (Kl. pneumoniae 1342 PR; Kl. pneumoniae 1342 PR, inoculum 10^7 CFU/ml) was 32 µg/mL and the MIC (Ps. aeruginosa 1945 PR; Ps. aeruginosa 1945 PR, inoculum 10^7 CFU/ml) was >64 µg/mL. The MIC (Acinetobacter spp. 1; Acinetobacter spp. 1, inoculum 10^7 CFU/ml) was >64 µg/mL, the MIC (E.coli ATCC 25922; E.coli ATCC 25922, inoculum 10^7 CFU/ml) was 1 µg/mL and the MIC (M. luteus; M. luteus, inoculum 10^7 CFU/ml) was 1 µg/mL. For the same compound, the MIC (S. aureus 1053 MRSA; S. aureus 1053 MRSA, inoculum 10^7 CFU/ml) was 4 µg/mL.

For CCCCCCCCCCCC[N+](C)(C)Cc1cnc(C[N+](C)(C)CCCCCCCCCCCC)c2c1COC(CC)O2 (stereo not drawn) [Compound I, 5,8-(Bis(methylene (N, N-dimethyl-N-dodecylammonium))-2-ethyl-4H-[1,3]dioxino [4,5-c]pyridiniumdichloride], the MIC (Kl. pneumoniae 1766; Klebsiella pneumoniae, Kl. pneumoniae 1766, inoculum 10^7 CFU/ml, read-out: MIC) was 16 µg/mL, the MIC (Klebsiella spp. 10; Klebsiella spp. 10, inoculum 10^7 CFU/ml, read-out: MIC) was 8 µg/mL and the MIC (S. aureus 21; Staphylococcus aureus, S. aureus 21, inoculum 10^7 CFU/ml, read-out: MIC) was 1 µg/mL. For the same compound, the MIC (B. subtilis 168; Bacillus subtilis, B. subtilis 168, inoculum 10^7 CFU/ml, read-out: MIC) was 2 µg/mL, the MIC (S. intermedius 1061 MRSI; S. intermedius 1061 MRSI, inoculum 10^7 CFU/ml, read-out: MIC) was 1 µg/mL and the MIC (E. faecium 29; Enterococcus faecium, E. faecium 29, inoculum 10^7 CFU/ml, read-out: MIC) was 0.03 µg/mL. The MIC (S. aureus ATCC 209p; Staphylococcus aureus, ATCC209P, S. aureus ATCC 209p, inoculum 10^7 CFU/ml, read-out: MIC) was 2 µg/mL, the MIC (S. aureus 22; Staphylococcus aureus, S. aureus 22, inoculum 10^7 CFU/ml, read-out: MIC) was 1 µg/mL and the MIC (Kl. pneumoniae 1953 PR; Klebsiella pneumoniae, Kl. pneumoniae 1953 PR, inoculum 10^7 CFU/ml, read-out: MIC) was 2 µg/mL. It also gave an MIC (S. aureus 967 MRSA; Staphylococcus aureus, S. aureus 967 MRSA, inoculum 10^7 CFU/ml, read-out: MIC) of 16 µg/mL, an MIC (S. aureus 1163 MRSA; Staphylococcus aureus, S. aureus 1163 MRSA, inoculum 10^7 CFU/ml, read-out: MIC) of 4 µg/mL and an MIC (Serratia spp. 15; Serratia spp. 15, inoculum 10^7 CFU/ml, read-out: MIC) of 16 µg/mL. For the same compound, the MIC (S. aureus 20; Staphylococcus aureus, S. aureus 20, inoculum 10^7 CFU/ml, read-out: MIC) was 4 µg/mL, the MIC (A. baumannii 1425 PR; Acinetobacter baumannii, A. baumannii 1425 PR, inoculum 10^7 CFU/ml, read-out: MIC) was 8 µg/mL and the MIC (Moraxella sp.829; Moraxella sp.829, inoculum 10^7 CFU/ml, read-out: MIC) was 4 µg/mL. For the same compound, the MIC (Pseudomonas spp.6; read-out: MIC) was 16 µg/mL, the MIC (Kl. pneumoniae 1342 PR; Klebsiella pneumoniae, Kl. pneumoniae 1342 PR, inoculum 10^7 CFU/ml, read-out: MIC) was 32 µg/mL and the MIC (Ps. aeruginosa 1945 PR; Pseudomonas aeruginosa, Ps. aeruginosa 1945 PR, inoculum 10^7 CFU/ml, read-out: MIC) was 64 µg/mL. For the same compound, the MIC (Acinetobacter spp. 1; Acinetobacter spp. 1, inoculum 10^7 CFU/ml, read-out: MIC) was 16 µg/mL, the MIC (E.coli ATCC 25922; Escherichia coli, ATCC25922, E.coli ATCC 25922, inoculum 10^7 CFU/ml, read-out: MIC) was 2 µg/mL and the MIC (M. luteus; Micrococcus luteus, M. luteus, inoculum 10^7 CFU/ml, read-out: MIC) was 2 µg/mL. The MIC (S. aureus 1053 MRSA; Staphylococcus aureus, S. aureus 1053 MRSA, inoculum 10^7 CFU/ml, read-out: MIC) was 2 µg/mL.
